According to PubChem BioAssay (NCI):
Where “and” joins values, the source holds several entries; their conditions need not be identical. Equal values may be shown once.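 These data come from cells grown in 96-well plates and exposed to compound for 48 hours at five concentrations. At the GI50, growth is halved. TGI is the concentration that stops growth completely.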

What follows are molecules tested on 786-0 renal (assay: NCI tumour cell line growth inhibition, 48 h).

Compound	GI50	TGI
CN1CCN(C(=O)OCc2nc3c(N4CCOCC4)nc(Cl)nc3n2C)CC1	1.56 µM	3 µM
COC(=O)[C@]12CC[C@@H](C)[C@H](C)[C@@H]1C1=CC[C@@H]3[C@@]4(C)C/C(=N\O)[C@H](O)[C@@]5(C)COC(=C45)C[C@@]3(C)[C@]1(C)CC2	1.76 µM	3.26 µM
Oc1c(CN2CCC(N3CCCCC3)CC2)cc(Cc2cc(CN3CCC(N4CCCCC4)CC3)c(O)c3ncccc23)c2cccnc12	1.53 µM	5.96 µM
C[C@@H]1OC(O)[C@@H](F)[C@H](O)[C@@H]1O (some centres undefined)	> 100 µM	> 100 µM
NC(=O)c1ccc(I)c(N)c1	> 100 µM	> 100 µM
CC/C(=C(/c1ccc(O)cc1)c1ccc(OCCNC)cc1)c1ccccc1	1.64 µM	3.27 µM
O=C(/C(Br)=C/c1ccccc1)c1ccccc1	1.9 µM	3.48 µM
C=C1C(=O)O[C@H]2[C@H]1CC/C(Cn1cc(-c3ccc(OC)cc3)nn1)=C\CC[C@@]1(C)O[C@@H]21	1.24 µM	2.65 µM
O=C1CCCCN1CCCCC#Cc1ccccc1C#Cc1ccc([N+](=O)[O-])cc1	8.41 µM	79 µM
CCOc1cc2c(Cl)ncnc2c(OCC)c1OCC	19 µM	36.8 µM
Oc1ccc2ccccc2c1N=Nc1nccs1	0.476 µM	> 41.7 µM
CC(=O)OCCN1c2ccccc2Sc2cnccc21	–	> 10 µM
CC(C)(CC(=O)Nc1ccccc1)C(=O)O	–	> 100 µM
Cn1c(=O)c2[nH]c(SCc3ccccn3)nc2n(C)c1=S	–	> 100 µM
COc1cc2c(c(O)c1Br)C(=O)c1c(O)cc(C[C@H](C)O)cc1[C@H]2[C@H]1c2cc(C[C@H](C)O)cc(O)c2C(=O)c2c1cc(OC)c(Br)c2O	23 µM and 14.1 µM	67.5 µM and > 100 µM
COc1ccc(-c2cc(=O)c3ccc(O)cc3o2)cc1OC	–	> 100 µM
CC[C@]1(O)C[C@@H]2CN(CCc3c([nH]c4ccccc34)[C@@](C(=O)OC)(c3cc4c(cc3OC)N(C)[C@H]3[C@@](O)(C(=O)OC)[C@H](OC(C)=O)[C@]5(CC)C=CCN6CC[C@]43[C@@H]65)C2)C1	< 0.01 µM	14.5 µM
N#CSc1c[nH]c2cccc(/C=C/C(=O)/C=C(/C=C/c3cccc4[nH]cc(SC#N)c34)OB(F)F)c12	0.344 µM	2.06 µM
N#Cc1ccc(O)c(C2=NCC(c3cccc(Oc4ccccc4)c3)O2)c1 (centres undefined)	0.761 µM	7.59 µM

What follows are molecules tested on IGROV1 ovarian (assay: NCI tumour cell line growth inhibition, 48 h).

Compound	GI50	TGI
CN1CCN(C(=O)OCc2nc3c(N4CCOCC4)nc(Cl)nc3n2C)CC1	1.24 µM	2.57 µM
COC(=O)[C@]12CC[C@@H](C)[C@H](C)[C@@H]1C1=CC[C@@H]3[C@@]4(C)C/C(=N\O)[C@H](O)[C@@]5(C)COC(=C45)C[C@@]3(C)[C@]1(C)CC2	8.87 µM	25.1 µM
Oc1c(CN2CCC(N3CCCCC3)CC2)cc(Cc2cc(CN3CCC(N4CCCCC4)CC3)c(O)c3ncccc23)c2cccnc12	1.16 µM	17.3 µM
C[C@@H]1OC(O)[C@@H](F)[C@H](O)[C@@H]1O (some centres undefined)	> 100 µM	> 100 µM
NC(=O)c1ccc(I)c(N)c1	> 100 µM	> 100 µM
CC/C(=C(/c1ccc(O)cc1)c1ccc(OCCNC)cc1)c1ccccc1	2.77 µM	7.66 µM
O=C(/C(Br)=C/c1ccccc1)c1ccccc1	1.66 µM	4.68 µM
C=C1C(=O)O[C@H]2[C@H]1CC/C(Cn1cc(-c3ccc(OC)cc3)nn1)=C\CC[C@@]1(C)O[C@@H]21	1.35 µM	3.27 µM
O=C1CCCCN1CCCCC#Cc1ccccc1C#Cc1ccc([N+](=O)[O-])cc1	8.21 µM	37.5 µM
CCOc1cc2c(Cl)ncnc2c(OCC)c1OCC	1.6 µM	3.53 µM
Oc1ccc2ccccc2c1N=Nc1nccs1	0.172 µM	6.95 µM
CC(=O)OCCN1c2ccccc2Sc2cnccc21	–	> 10 µM
CC(C)(CC(=O)Nc1ccccc1)C(=O)O	–	> 100 µM
Cn1c(=O)c2[nH]c(SCc3ccccn3)nc2n(C)c1=S	–	> 100 µM
COc1cc2c(c(O)c1Br)C(=O)c1c(O)cc(C[C@H](C)O)cc1[C@H]2[C@H]1c2cc(C[C@H](C)O)cc(O)c2C(=O)c2c1cc(OC)c(Br)c2O	2.98 µM and 5.45 µM	46.7 µM and 28.2 µM
COc1ccc(-c2cc(=O)c3ccc(O)cc3o2)cc1OC	–	> 100 µM
CC[C@]1(O)C[C@@H]2CN(CCc3c([nH]c4ccccc34)[C@@](C(=O)OC)(c3cc4c(cc3OC)N(C)[C@H]3[C@@](O)(C(=O)OC)[C@H](OC(C)=O)[C@]5(CC)C=CCN6CC[C@]43[C@@H]65)C2)C1	< 0.01 µM	13 µM
N#CSc1c[nH]c2cccc(/C=C/C(=O)/C=C(/C=C/c3cccc4[nH]cc(SC#N)c34)OB(F)F)c12	0.448 µM	4.36 µM
N#Cc1ccc(O)c(C2=NCC(c3cccc(Oc4ccccc4)c3)O2)c1 (centres undefined)	0.787 µM	12.1 µM

The molecules below were run on TK-10 renal (assay: NCI tumour cell line growth inhibition, 48 h).

Compound	GI50 [µM]	TGI [µM]
CN1CCN(C(=O)OCc2nc3c(N4CCOCC4)nc(Cl)nc3n2C)CC1	1.59	3.05
COC(=O)[C@]12CC[C@@H](C)[C@H](C)[C@@H]1C1=CC[C@@H]3[C@@]4(C)C/C(=N\O)[C@H](O)[C@@]5(C)COC(=C45)C[C@@]3(C)[C@]1(C)CC2	18.3	33.9
Oc1c(CN2CCC(N3CCCCC3)CC2)cc(Cc2cc(CN3CCC(N4CCCCC4)CC3)c(O)c3ncccc23)c2cccnc12	1.14	10.3
C[C@@H]1OC(O)[C@@H](F)[C@H](O)[C@@H]1O (some centres undefined)	> 100	> 100
NC(=O)c1ccc(I)c(N)c1	> 100	> 100
CC/C(=C(/c1ccc(O)cc1)c1ccc(OCCNC)cc1)c1ccccc1	2.76	7.76
O=C(/C(Br)=C/c1ccccc1)c1ccccc1	3.38	14.6
C=C1C(=O)O[C@H]2[C@H]1CC/C(Cn1cc(-c3ccc(OC)cc3)nn1)=C\CC[C@@]1(C)O[C@@H]21	1.42	2.85
